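These data come from cells grown in 96-well plates and exposed to compound for 48 hours at five concentrations. Abbreviation: GI50, concentration required for 50% inhibition of growth.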 Active and inactive are the calls of the source. Rule as the data show it: active = GI50 up to about 1.1 µM and inactive = higher.
How the values were obtained:
Assay in all cases: growth of human tumour cells (NCI), 48 h
[1] = system: 786-0
[2] = system: A498
[3] = system: A549
[4] = system: ACHN
[5] = system: BT-549
[6] = system: CAKI-1
[7] = system: CCRF-CEM
[8] = system: COLO 205
[9] = system: DU-145
[10] = system: EKVX
[11] = system: HCC 2998
[12] = system: HCT-116
[13] = system: HCT-15
[14] = system: HOP-62
[15] = system: HOP-92
[16] = system: HT-29
[17] = system: Hs-578T
[18] = system: IGROV-1
[19] = system: K562
[20] = system: KM12
[21] = system: LOX IMVI
[22] = system: M14
[23] = system: MCF7
[24] = system: MDA-MB-231
[25] = system: MDA-MB-435
[26] = system: MDA-N
[27] = system: MOLT-4
[28] = system: Malme-3M
[29] = system: NCI-H226
[30] = system: NCI-H23
[31] = system: NCI-H460
[32] = system: NCI-H522
[33] = system: NCI/ADR-RES
[34] = system: OVCAR-3
[35] = system: OVCAR-4
[36] = system: OVCAR-5
[37] = system: OVCAR-8
[38] = system: PC-3
[39] = system: RPMI-8226
[40] = system: RXF 393
[41] = system: SF-268
[42] = system: SF-295
[43] = system: SF-539
[44] = system: SK-MEL-28
[45] = system: SK-MEL-2
[46] = system: SK-MEL-5
[47] = system: SK-OV-3
[48] = system: SN12C
[49] = system: SNB-19
[50] = system: SNB-75
[51] = system: SR
[52] = system: SW-620
[53] = system: T47D
[54] = system: TK-10
[55] = system: U-251
[56] = system: UACC-257
[57] = system: UACC-62
[58] = system: UO-31
[59] = system: HL-60

Measured: GI50

CCOC(=O)C1CCCCN1CCc1c[nH]c2ccccc12 (stereo unspecified)
93.1 µM: [13]
inactive: [1] > 100 µM | [2] 44.1 µM | [3] 74.6 µM | [4] > 100 µM | [5] 75 µM | [6] > 100 µM | [7] > 100 µM | [8] > 100 µM | [9] > 100 µM | [10] > 100 µM | [11] > 100 µM | [12] 60 µM | [14] > 100 µM | [15] 16 µM | [16] 50.9 µM | [17] > 100 µM | [18] > 100 µM | [19] 72.3 µM | [20] > 100 µM | [21] > 100 µM | [22] > 100 µM | [23] > 100 µM | [24] > 100 µM | [25] > 100 µM | [26] > 100 µM | [27] 25.1 µM | [28] > 100 µM | [29] 71.6 µM | [30] 83.8 µM | [31] 94.8 µM | [32] 56.2 µM | [33] 73.1 µM | [34] > 100 µM | [35] 73.5 µM | [36] > 100 µM | [37] > 100 µM | [38] > 100 µM | [39] 84.7 µM | [40] 80.9 µM | [41] > 100 µM | [42] 66.2 µM | [43] > 100 µM | [44] > 100 µM | [45] > 100 µM | [46] 80.9 µM | [47] > 100 µM | [48] > 100 µM | [49] > 100 µM | [50] > 100 µM | [51] > 100 µM | [52] > 100 µM | [53] 32.5 µM | [54] > 100 µM | [55] > 100 µM | [56] > 100 µM | [57] > 100 µM | [58] 83.4 µM

CNc1ccc([S+]([O-])Nc2ccc(OC)cc2)cc1 (stereo unspecified)
inactive: [1] 74.8 µM | [2] > 100 µM | [3] 66.2 µM | [4] 32.3 µM | [5] 2.06 µM | [6] 65.5 µM | [7] 46.5 µM | [8] 29.2 µM | [9] 39.5 µM | [10] 70.1 µM | [11] 50.2 µM | [12] 66.8 µM | [59] 54.6 µM | [14] > 100 µM | [15] > 100 µM | [16] 33.7 µM | [17] > 100 µM | [18] 11.4 µM | [19] 21.3 µM | [20] 3.86 µM | [21] 7.38 µM | [22] > 100 µM | [23] 79.6 µM | [24] 17.1 µM | [25] 14.2 µM | [26] > 100 µM | [27] 51.8 µM | [28] 41.7 µM | [29] > 100 µM | [30] > 100 µM | [31] 32 µM | [32] > 100 µM | [33] 27.9 µM | [34] > 100 µM | [35] > 100 µM | [37] 86.3 µM | [38] > 100 µM | [39] > 100 µM | [41] > 100 µM | [42] > 100 µM | [43] 33.2 µM | [44] 93.3 µM | [46] 19.3 µM | [47] 49.2 µM | [48] > 100 µM | [49] > 100 µM | [51] > 100 µM | [52] 31.6 µM | [53] 31.8 µM | [54] > 100 µM | [55] 43.4 µM | [56] > 100 µM | [57] > 10 µM | [58] 7 µM
> 100 µM: [13]

CC(C)=C[C@@H]1O[C@H](O)[C@@H]([C@H]2CC[C@@]3(C)[C@@H]4CC[C@H]5C(C)(C)C(=O)CC[C@@]56C[C@@]46CC[C@]23C)[C@@H]1O
inactive: [1] 14.3 µM | [2] 18.3 µM | [3] 14.4 µM | [4] 18.1 µM | [5] 20.1 µM | [6] 17.3 µM | [7] 9.93 µM | [8] 20.1 µM | [9] 16.1 µM | [10] 18.5 µM | [11] 18.6 µM | [12] 15.2 µM | [59] 14.2 µM | [14] 23.7 µM | [15] 16.6 µM | [16] 11.8 µM | [17] 21.2 µM | [18] 19.5 µM | [19] 15.6 µM | [20] 18.1 µM | [22] 21 µM | [23] 4.14 µM | [24] 19.5 µM | [25] 17.7 µM | [26] 15.9 µM | [27] 14.1 µM | [28] 16.8 µM | [29] 11.7 µM | [30] 16.4 µM | [31] 19.5 µM | [32] 13.1 µM | [33] 16.7 µM | [34] 13.2 µM | [35] 18.1 µM | [36] 23.1 µM | [37] 15.4 µM | [38] 13 µM | [39] 3.14 µM | [40] 12.7 µM | [41] 17.6 µM | [42] 16.1 µM | [43] 12.4 µM | [44] 22.8 µM | [45] 20 µM | [46] 17.7 µM | [47] 16.5 µM | [48] 19.3 µM | [49] 20.9 µM | [50] 17.7 µM | [51] 9.64 µM | [52] 13.1 µM | [53] 14.6 µM | [54] 16 µM | [55] 17 µM | [56] 16.7 µM | [57] 18.1 µM | [58] 15.3 µM
16.9 µM: [13]

— ChEMBL document CHEMBL1201862, “PubChem BioAssay data set” (2004)
